The text below walks through data of ChEMBL document CHEMBL4699525, “Design and synthesis of new indanol-1,2,3-triazole derivatives as potent antitubercular and antimicrobial agents” (Bioorg Med Chem Lett, 2020).

What is called inhibition is the drop in the measured response relative to a control, in per cent.

In series [1] the test system is Klebsiella aerogenes. Briefly: Antibacterial activity against Enterobacter aerogenes assessed as inhibition of bacterial growth incubated for 24 hrs by agar well diffusion method. It counts as functional. A general note: Agar diffusion results depend on both activity and mobility in agar.
For a further series, the system named is Escherichia coli. Put plainly: Antibacterial activity against Escherichia coli assessed as inhibition of bacterial growth incubated for 24 hrs by agar well diffusion method. It counts as functional.
The subject of the next series is Bacillus cereus. Put plainly: Antibacterial activity against Bacillus cereus assessed as inhibition of bacterial growth incubated for 24 hrs by agar well diffusion method. It counts as functional.
A short description of series [2]: Cytotoxicity against human HEK293 cells assessed as inhibition of cell growth at 25 uM incubated for 48 hrs by MTT assay. Type of series: cell-based. In general terms: Tetrazolium dyes change colour on reduction, which living cells bring about.
Series [3] has as its system Shigella boydii. Briefly: Antibacterial activity against Shigella boydii assessed as inhibition of bacterial growth incubated for 24 hrs by agar well diffusion method. Type of series: functional.
In a further series the test system is Pseudomonas aeruginosa. Briefly: Antibacterial activity against Pseudomonas aeruginosa assessed as inhibition of bacterial growth incubated for 24 hrs by agar well diffusion method. Type of series: functional.
In series [4] the test system is Aspergillus niger. Briefly: Antifungal activity against Aspergillus niger assessed as inhibition of fungal growth incubated for 24 hrs by agar well diffusion method. Type of series: functional.
A further series deals with Bacillus subtilis. Put plainly: Antibacterial activity against Bacillus subtilis assessed as inhibition of bacterial growth incubated for 24 hrs by agar well diffusion method. Type of series: functional.
In series [5] the test system is Staphylococcus aureus. Put plainly: Antibacterial activity against Staphylococcus aureus assessed as inhibition of bacterial growth incubated for 24 hrs by agar well diffusion method. It counts as functional.
In series [6] the test system is Saccharomyces cerevisiae. Put plainly: Antifungal activity against Saccharomyces cerevisiae assessed as inhibition of fungal growth incubated for 24 hrs by agar well diffusion method. It counts as functional.
In another series the test system is Salmonella typhi. Briefly: Antibacterial activity against Salmonella typhi assessed as inhibition of bacterial growth incubated for 24 hrs by agar well diffusion method. Type of series: functional.
The target in series [7] is T1, Enoyl-[acyl-carrier-protein] reductase [NADH] (Mycobacterium tuberculosis) (UniProt P9WGR1).
T1 sequence (whole entry): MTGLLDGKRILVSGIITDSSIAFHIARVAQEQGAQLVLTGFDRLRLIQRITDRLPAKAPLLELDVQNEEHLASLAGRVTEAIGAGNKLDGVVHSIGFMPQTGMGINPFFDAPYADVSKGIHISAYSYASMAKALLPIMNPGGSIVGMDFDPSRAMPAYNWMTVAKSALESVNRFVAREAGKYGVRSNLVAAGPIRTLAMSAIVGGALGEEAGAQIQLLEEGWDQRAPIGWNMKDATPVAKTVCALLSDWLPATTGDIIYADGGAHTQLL
Put plainly: Inhibition of InhA in Mycobacterium tuberculosis H37Rv assessed antitubercular activity by measuring inhibition of bacterial growth incubated for 7 days by MABA assay. The conditions noted are these: time 7.0 day. On the technique in general: Resazurin is reduced to fluorescent resorufin, in cell work by metabolically active cells.

The test system of series [8] is Candida albicans. Put plainly: Antifungal activity against Candida albicans assessed as inhibition of fungal growth incubated for 24 hrs by agar well diffusion method. It counts as functional.
Series [9] relates to Salmonella enterica subsp. enterica serovar Abony. Put plainly: Antibacterial activity against Salmonella abony assessed as inhibition of bacterial growth incubated for 24 hrs by agar well diffusion method. Type of series: functional.
For series [10], the system named is Saccharomyces cerevisiae. Briefly: Antifungal activity against Saccharomyces cerevisiae assessed as inhibition of […] growth incubated for overnight by CLSI based method. It counts as functional.
For series [11], the system named is Staphylococcus aureus. Briefly: Antibacterial activity against Staphylococcus aureus assessed as inhibition of bacterial growth incubated for overnight by CLSI based method. Type of series: functional.
Series [12] has as its system Aspergillus niger. Briefly: Antifungal activity against Aspergillus niger assessed as inhibition of […] growth incubated for overnight by CLSI based method. It counts as functional.
Series [13] concerns Shigella boydii. Put plainly: Antibacterial activity against Shigella boydii assessed as inhibition of bacterial growth incubated for overnight by CLSI based method. It counts as functional.
Series [14] deals with Klebsiella aerogenes. Put plainly: Antibacterial activity against Enterobacter aerogenes assessed as inhibition of bacterial growth incubated for overnight by CLSI based method. Type of series: functional.
In series [15] the test system is Candida albicans. Put plainly: Antifungal activity against Candida albicans assessed as inhibition of […] growth incubated for overnight by CLSI based method. Type of series: functional.
[16] abbreviates: Salmonella enterica subsp. enterica serovar Typhi.

≈ marks a conversion by molar mass, not a printed value. Calls of active or inactive are those of the source. The calls are words filed in the database; no cut-off is given here.

In the case of `c1ccc(-n2cc(COc3ccc4c(c3)CCC4)nn2)cc1`, the “diameter of the inhibition zone (DIZ)” value with Klebsiella aerogenes [1], in the series on Escherichia coli, in the series on Bacillus cereus, in the series on Shigella boydii [3], in the series on Pseudomonas aeruginosa and in the series with Aspergillus niger [4] was “inactive” throughout. The “diameter of the inhibition zone (DIZ)” value (in the series on Bacillus subtilis; in the series on Salmonella typhi (setting [16]); in series [9]) was “inactive” in each case. Further, in series [2], the inhibition at 48 h, 25 µM came to 23.4%. The “diameter of the inhibition zone (DIZ)” value in the series with Staphylococcus aureus [5] is listed as 7 mm; in the series on Saccharomyces cerevisiae [6], 8 mm; with Candida albicans [8], 12 mm. In series [7], this molecule returned an MIC of 25 µM (≈ 7.28 µg/mL).

`O=[N+]([O-])c1cccc(-n2cc(COc3ccc4c(c3)CCC4)nn2)c1`: the “diameter of the inhibition zone (DIZ)” value in the series with Klebsiella aerogenes [1] is listed as 14 mm; with Escherichia coli it was 12 mm; in the series with Bacillus cereus, 13 mm; in the series with Shigella boydii [3], 10 mm; in the series with Pseudomonas aeruginosa it was 11 mm; in the series with Aspergillus niger [4], 6 mm. Further, the “diameter of the inhibition zone (DIZ)” value turned out to be 12 mm with Bacillus subtilis; 8 mm in the series with Staphylococcus aureus [5]; 7 mm with Saccharomyces cerevisiae [6]; 8 mm in the series with Salmonella typhi; 12 mm in the series on Candida albicans [8]; 8 mm in series [9]. The MIC in the series on Saccharomyces cerevisiae [10] was 180 µg/mL (≈ 535 µM); in the series with Staphylococcus aureus [11] it was 165 µg/mL (≈ 491 µM); with Aspergillus niger [12], 220 µg/mL (≈ 654 µM); in the series with Shigella boydii [13] it was 90 µg/mL (≈ 268 µM); in series [7] it was greater than 25 µM; with Klebsiella aerogenes [14], 70 µg/mL (≈ 208 µM). The MIC in the series with Candida albicans [15] amounted to 125 µg/mL (≈ 372 µM).

For `Fc1ccccc1-n1cc(COc2ccc3c(c2)CCC3)nn1`, the “diameter of the inhibition zone (DIZ)” value with Klebsiella aerogenes [1], with Escherichia coli, in the series with Bacillus cereus, in the series on Shigella boydii [3], in the series with Pseudomonas aeruginosa and in the series on Aspergillus niger [4] was “inactive” in each case. In addition, the “diameter of the inhibition zone (DIZ)” value (in the series with Bacillus subtilis; with Salmonella typhi (setting [16]); in series [9]) was “inactive” in each case. Besides, the inhibition at 48 h, 25 µM in [2] was determined as 21%. Besides, the “diameter of the inhibition zone (DIZ)” value in the series on Staphylococcus aureus [5] was determined as 15 mm; in the series with Saccharomyces cerevisiae [6], 10 mm; with Candida albicans [8], 9 mm. Also, the MIC in [7] came out at 6.25 µM (≈ 1.93 µg/mL).

Turning to `Cc1cc(C)c(-n2cc(COc3ccc4c(c3)CCC4)nn2)c(C)c1`, the “diameter of the inhibition zone (DIZ)” value in the series with Klebsiella aerogenes [1], with Escherichia coli, in the series on Bacillus cereus, in the series with Shigella boydii [3], in the series on Pseudomonas aeruginosa and with Aspergillus niger [4] was “inactive” each time. Moreover, the “diameter of the inhibition zone (DIZ)” value (in the series with Bacillus subtilis; with Staphylococcus aureus [5]; in the series with Saccharomyces cerevisiae [6]; in the series on Salmonella typhi (setting [16]); with Candida albicans [8]; in series [9]) was “inactive” each time. In [2], the inhibition at 48 h, 25 µM was found to be 16.6%. For the same molecule, the MIC in series [7] worked out at 6.25 µM (≈ 2.08 µg/mL).

Consider `Cc1cccc(-n2cc(COc3ccc4c(c3)CCC4)nn2)c1`, for which the “diameter of the inhibition zone (DIZ)” value with Klebsiella aerogenes [1], with Escherichia coli, in the series on Bacillus cereus, in the series on Shigella boydii [3], in the series on Pseudomonas aeruginosa and with Aspergillus niger [4] was “inactive” throughout. In addition, the “diameter of the inhibition zone (DIZ)” value (with Bacillus subtilis; in the series with Salmonella typhi (setting [16]); in series [9]) was “inactive” throughout. For the same molecule, in series [2], the inhibition at 48 h, 25 µM was 23.4%. For the same molecule, the “diameter of the inhibition zone (DIZ)” value is given as 6 mm in the series with Staphylococcus aureus [5], 13 mm in the series on Saccharomyces cerevisiae [6] and 10 mm with Candida albicans [8]. In addition, in series [7], the MIC is 12.5 µM (≈ 3.82 µg/mL).

`CN(C)[C@@H]1C(O)=C(C(N)=O)C(=O)[C@@]2(O)C(O)=C3C(=O)c4c(O)cccc4[C@@](C)(O)[C@H]3C[C@@H]12` [TETRACYCLINE]: the “diameter of the inhibition zone (DIZ)” value with Klebsiella aerogenes [1] was 33 mm; with Escherichia coli, 29 mm; with Bacillus cereus, 33 mm; in the series with Shigella boydii [3] it was 34 mm; with Pseudomonas aeruginosa it was 32 mm; in the series with Bacillus subtilis it was 32 mm. Also, the “diameter of the inhibition zone (DIZ)” value was determined as 29 mm in the series with Staphylococcus aureus [5], 33 mm with Salmonella typhi and 32 mm in series [9]. Besides, the MIC came to 20 µg/mL (≈ 45 µM) with Staphylococcus aureus [11], 20 µg/mL (≈ 45 µM) with Shigella boydii [13] and 30 µg/mL (≈ 67.5 µM) in the series with Klebsiella aerogenes [14].

Regarding `COc1ccccc1-n1cc(COc2ccc3c(c2)CCC3)nn1`, the “diameter of the inhibition zone (DIZ)” value in the series on Klebsiella aerogenes [1], with Escherichia coli, with Bacillus cereus, in the series with Shigella boydii [3], with Pseudomonas aeruginosa and in the series on Aspergillus niger [4] was “inactive” each time. Moreover, the “diameter of the inhibition zone (DIZ)” value (with Bacillus subtilis; in the series with Saccharomyces cerevisiae [6]; in the series with Salmonella typhi (setting [16]); in series [9]) was “inactive” in each case. Further, the inhibition at 48 h, 25 µM in [2] came to 19.8%. Moreover, the “diameter of the inhibition zone (DIZ)” value in the series on Staphylococcus aureus [5] and in the series with Candida albicans [8] was 10 mm each time. In series [7], this molecule had an MIC of 12.5 µM (≈ 4.02 µg/mL).

For `COc1cccc(-n2cc(COc3ccc4c(c3)CCC4)nn2)c1`, the “diameter of the inhibition zone (DIZ)” value in the series with Klebsiella aerogenes [1], in the series on Bacillus cereus, in the series with Bacillus subtilis and in the series on Saccharomyces cerevisiae [6] was “inactive” each time. The “diameter of the inhibition zone (DIZ)” value in the series with Escherichia coli was determined as 10 mm; in the series on Shigella boydii [3], 13 mm; with Pseudomonas aeruginosa it was 9 mm; in the series with Staphylococcus aureus [5], 12 mm; with Candida albicans [8], 12 mm; in series [9], 11 mm. In addition, the inhibition at 48 h, 25 µM in series [2] stood at 25.8%. This molecule yielded an MIC in [7] of 12.5 µM (≈ 4.02 µg/mL).

For the molecule `OC(Cn1cncn1)(Cn1cncn1)c1ccc(F)cc1F` [FLUCONAZOLE], the MIC amounted to 12 µg/mL (≈ 39.2 µM) in the series on Saccharomyces cerevisiae [10], 8 µg/mL (≈ 26.1 µM) in the series with Aspergillus niger [12] and 25 µg/mL (≈ 81.6 µM) in the series with Candida albicans [15]. In addition, the “diameter of the inhibition zone (DIZ)” value with Aspergillus niger [4], in the series with Saccharomyces cerevisiae [6] and in the series with Candida albicans [8] was 30 mm in each case.
